Measured values as given in paper PMC8453901, “GLPG1205, a GPR84 Modulator: Safety, Pharmacokinetics, and Pharmacodynamics in Healthy Subjects” (Clinical Pharmacology in Drug Development, 2021).
Where “and” joins values, the source holds several entries; their conditions need not be identical. Equal values may be shown once.

What was measured:
[1] = Safety and tolerability, study 1 MAD part; type: in vivo, human
Description: Safety and tolerability were assessed on the basis of adverse events (AEs), which were monitored throughout both studies. Additional safety assessments included vital signs (including supine [and standing in study 2] heart rate, systolic and diastolic blood pressure, and oral body temperature), 12‐lead electrocardiogram (ECG), clinical laboratory tests (hematology, coagulation [study 2 only], serum/plasma chemistry, urinalysis, urine drug screen, serology, and alcohol breath test), and a comprehensive physical examination. […] In the MAD part of study 1, all additional safety assessments were performed at screening; days 1, 2, 8, 14, and 15; and at follow‐up. In study 2, additional safety assessments were performed at screening (between 21 and 2 days before the first study drug administration); days 1, 2, 5, 10, 14, 15, and 20 (clinical laboratory tests were not performed on day 20); at early discontinuation; and at follow‐up. For study 2, renal function tests (measurement of estimated creatinine clearance rate using the Cockcroft‐Gault equation) were also included in the clinical laboratory tests for safety assessment.
In both studies, the safety analysis was descriptive and focused on changes from baseline and treatment‐emergent findings.

[2] = parameters: method as in data on file at Galapagos, 17; conditions: separate study; ref data on file at Galapagos, 17; cited from earlier work

O=c1nc(OC[C@@H]2COCCO2)cc2n1CCc1cc(C#CC3CC3)ccc1-2 [GLPG1205, 9‐cyclopropylethynyl‐2‐((S)‐1‐[1,4]dioxan‐2‐ylmethoxy)‐6,7‐dihydropyrimido[6,1‐a]isoquinolin‐4‐one]
Abdominal discomfort (TEAE) ([1]; 50 mg QD (n = 6)): 0 number of subjects (%)
Abdominal distension (TEAE) ([1]; 50 mg QD (n = 6)): 0 number of subjects (%)
Abdominal pain (TEAE) ([1]; 50 mg QD (n = 6)): 0 number of subjects (%)
Abdominal pain upper (TEAE) ([1]; 50 mg QD (n = 6)): 0 number of subjects (%)
Any TEAE ([1]; 50 mg QD (n = 6)): 2 (33.3) number of subjects (%)
Decreased appetite (TEAE) ([1]; 50 mg QD (n = 6)): 0 number of subjects (%)
Dehydration (TEAE) ([1]; 50 mg QD (n = 6)): 0 number of subjects (%)
Diarrhea (TEAE) ([1]; 50 mg QD (n = 6)): 1 (16.7) number of subjects (%)
Disturbance in attention (TEAE) ([1]; 50 mg QD (n = 6)): 0 number of subjects (%)
Dizziness (TEAE) ([1]; 50 mg QD (n = 6)): 0 number of subjects (%)
Dry skin (TEAE) ([1]; 50 mg QD (n = 6)): 1 (16.7) number of subjects (%)
Ecchymosis (TEAE) ([1]; 50 mg QD (n = 6)): 0 number of subjects (%)
Erythema (TEAE) ([1]; 50 mg QD (n = 6)): 0 number of subjects (%)
Fatigue (TEAE) ([1]; 50 mg QD (n = 6)): 0 number of subjects (%)
Flatulence (TEAE) ([1]; 50 mg QD (n = 6)): 0 number of subjects (%)
Gastrointestinal disorders (TEAE) ([1]; 50 mg QD (n = 6)): 1 (16.7) number of subjects (%)
General disorders and administration site conditions (TEAE) ([1]; 50 mg QD (n = 6)): 0 number of subjects (%)
Headache (TEAE) ([1]; 50 mg QD (n = 6)): 0 number of subjects (%)
Hot flush (TEAE) ([1]; 50 mg QD (n = 6)): 0 number of subjects (%)
Metabolism and nutrition disorders (TEAE) ([1]; 50 mg QD (n = 6)): 0 number of subjects (%)
Musculoskeletal and connective tissue disorders (TEAE) ([1]; 50 mg QD (n = 6)): 0 number of subjects (%)
Musculoskeletal stiffness (TEAE) ([1]; 50 mg QD (n = 6)): 0 number of subjects (%)
Nausea (TEAE) ([1]; 50 mg QD (n = 6)): 0 number of subjects (%)
Nervous system disorders (TEAE) ([1]; 50 mg QD (n = 6)): 0 number of subjects (%)
Oropharyngeal pain (TEAE) ([1]; 50 mg QD (n = 6)): 0 number of subjects (%)
Respiratory, thoracic, and mediastinal disorders (TEAE) ([1]; 50 mg QD (n = 6)): 0 number of subjects (%)
Skin and subcutaneous tissue disorders (TEAE) ([1]; 50 mg QD (n = 6)): 1 (16.7) number of subjects (%)
Somnolence (TEAE) ([1]; 50 mg QD (n = 6)): 0 number of subjects (%)
Vascular disorders (TEAE) ([1]; 50 mg QD (n = 6)): 0 number of subjects (%)
Vomiting (TEAE) ([1]; 50 mg QD (n = 6)): 0 number of subjects (%)
subjects with treatment-emergent abnormality during physical examination ([1]; 50 mg once daily): 1 n
Abdominal discomfort (TEAE) ([1]; 100 mg QD (n = 6)): 1 (16.7) number of subjects (%)
Abdominal distension (TEAE) ([1]; 100 mg QD (n = 6)): 0 number of subjects (%)
Abdominal pain (TEAE) ([1]; 100 mg QD (n = 6)): 0 number of subjects (%)
Abdominal pain upper (TEAE) ([1]; 100 mg QD (n = 6)): 1 (16.7) number of subjects (%)
Any TEAE ([1]; 100 mg QD (n = 6)): 5 (83.3) number of subjects (%)
Decreased appetite (TEAE) ([1]; 100 mg QD (n = 6)): 0 number of subjects (%)
Dehydration (TEAE) ([1]; 100 mg QD (n = 6)): 0 number of subjects (%)
Diarrhea (TEAE) ([1]; 100 mg QD (n = 6)): 2 (33.3) number of subjects (%)
Disturbance in attention (TEAE) ([1]; 100 mg QD (n = 6)): 0 number of subjects (%)
Dizziness (TEAE) ([1]; 100 mg QD (n = 6)): 0 number of subjects (%)
Dry skin (TEAE) ([1]; 100 mg QD (n = 6)): 0 number of subjects (%)
Ecchymosis (TEAE) ([1]; 100 mg QD (n = 6)): 1 (16.7) number of subjects (%)
Erythema (TEAE) ([1]; 100 mg QD (n = 6)): 1 (16.7) number of subjects (%)
Fatigue (TEAE) ([1]; 100 mg QD (n = 6)): 0 number of subjects (%)
Flatulence (TEAE) ([1]; 100 mg QD (n = 6)): 0 number of subjects (%)
Gastrointestinal disorders (TEAE) ([1]; 100 mg QD (n = 6)): 3 (50.0) number of subjects (%)
General disorders and administration site conditions (TEAE) ([1]; 100 mg QD (n = 6)): 0 number of subjects (%)
Headache (TEAE) ([1]; 100 mg QD (n = 6)): 3 number of subjects (%) and 3 (50.0) number of subjects (%)
Hot flush (TEAE) ([1]; 100 mg QD (n = 6)): 0 number of subjects (%)
Metabolism and nutrition disorders (TEAE) ([1]; 100 mg QD (n = 6)): 0 number of subjects (%)
Musculoskeletal and connective tissue disorders (TEAE) ([1]; 100 mg QD (n = 6)): 0 number of subjects (%)
Musculoskeletal stiffness (TEAE) ([1]; 100 mg QD (n = 6)): 0 number of subjects (%)
Nausea (TEAE) ([1]; 100 mg QD (n = 6)): 1 (16.7) number of subjects (%)
Nervous system disorders (TEAE) ([1]; 100 mg QD (n = 6)): 3 (50.0) number of subjects (%)
Oropharyngeal pain (TEAE) ([1]; 100 mg QD (n = 6)): 1 (16.7) number of subjects (%)
Respiratory, thoracic, and mediastinal disorders (TEAE) ([1]; 100 mg QD (n = 6)): 1 (16.7) number of subjects (%)
Skin and subcutaneous tissue disorders (TEAE) ([1]; 100 mg QD (n = 6)): 2 (33.3) number of subjects (%)
Somnolence (TEAE) ([1]; 100 mg QD (n = 6)): 0 number of subjects (%)
Vascular disorders (TEAE) ([1]; 100 mg QD (n = 6)): 0 number of subjects (%)
Vomiting (TEAE) ([1]; 100 mg QD (n = 6)): 0 number of subjects (%)
subjects with treatment-emergent abnormality during physical examination ([1]; 100 mg once daily): 1 n
Abdominal discomfort (TEAE) ([1]; 200 mg QD (n = 6)): 1 (16.7) number of subjects (%)
Abdominal distension (TEAE) ([1]; 200 mg QD (n = 6)): 1 (16.7) number of subjects (%)
Abdominal pain (TEAE) ([1]; 200 mg QD (n = 6)): 1 (16.7) number of subjects (%)
Abdominal pain upper (TEAE) ([1]; 200 mg QD (n = 6)): 0 number of subjects (%)
Any TEAE ([1]; 200 mg QD (n = 6)): 5 (83.3) number of subjects (%)
Decreased appetite (TEAE) ([1]; 200 mg QD (n = 6)): 1 (16.7) number of subjects (%)
Dehydration (TEAE) ([1]; 200 mg QD (n = 6)): 2 (33.3) number of subjects (%)
Diarrhea (TEAE) ([1]; 200 mg QD (n = 6)): 1 (16.7) number of subjects (%)
Disturbance in attention (TEAE) ([1]; 200 mg QD (n = 6)): 1 (16.7) number of subjects (%)
Dizziness (TEAE) ([1]; 200 mg QD (n = 6)): 1 (16.7) number of subjects (%)
Dry skin (TEAE) ([1]; 200 mg QD (n = 6)): 0 number of subjects (%)
Ecchymosis (TEAE) ([1]; 200 mg QD (n = 6)): 0 number of subjects (%)
Erythema (TEAE) ([1]; 200 mg QD (n = 6)): 0 number of subjects (%)
Fatigue (TEAE) ([1]; 200 mg QD (n = 6)): 3 (50.0) number of subjects (%)
Flatulence (TEAE) ([1]; 200 mg QD (n = 6)): 1 (16.7) number of subjects (%)
Gastrointestinal disorders (TEAE) ([1]; 200 mg QD (n = 6)): 4 (66.7) number of subjects (%)
General disorders and administration site conditions (TEAE) ([1]; 200 mg QD (n = 6)): 3 (50.0) number of subjects (%)
Headache (TEAE) ([1]; 200 mg QD (n = 6)): 4 number of subjects (%) and 4 (66.7) number of subjects (%)
Hot flush (TEAE) ([1]; 200 mg QD (n = 6)): 1 (16.7) number of subjects (%)
Metabolism and nutrition disorders (TEAE) ([1]; 200 mg QD (n = 6)): 2 (33.3) number of subjects (%)
Musculoskeletal and connective tissue disorders (TEAE) ([1]; 200 mg QD (n = 6)): 1 (16.7) number of subjects (%)
Musculoskeletal stiffness (TEAE) ([1]; 200 mg QD (n = 6)): 1 (16.7) number of subjects (%)
Nausea (TEAE) ([1]; 200 mg QD (n = 6)): 2 (33.3) number of subjects (%)
Nervous system disorders (TEAE) ([1]; 200 mg QD (n = 6)): 5 (83.3) number of subjects (%)
Oropharyngeal pain (TEAE) ([1]; 200 mg QD (n = 6)): 2 (33.3) number of subjects (%)
Respiratory, thoracic, and mediastinal disorders (TEAE) ([1]; 200 mg QD (n = 6)): 2 (33.3) number of subjects (%)
Skin and subcutaneous tissue disorders (TEAE) ([1]; 200 mg QD (n = 6)): 0 number of subjects (%)
Somnolence (TEAE) ([1]; 200 mg QD (n = 6)): 1 (16.7) number of subjects (%)
Vascular disorders (TEAE) ([1]; 200 mg QD (n = 6)): 1 (16.7) number of subjects (%)
Vomiting (TEAE) ([1]; 200 mg QD (n = 6)): 2 (33.3) number of subjects (%)
subjects with treatment-emergent abnormality during physical examination ([1]; 200 mg once daily): 2 n
TEAE leading to study drug withdrawal: abdominal pain ([1]; 200-mg once-daily group): 1 n
TEAE leading to study drug withdrawal: decreased appetite ([1]; 200-mg once-daily group): 1 n
TEAE leading to study drug withdrawal: dehydration ([1]; 200-mg once-daily group): 2 n
TEAE leading to study drug withdrawal: diarrhea ([1]; 200-mg once-daily group): 1 n
TEAE leading to study drug withdrawal: dizziness ([1]; 200-mg once-daily group): 1 n
TEAE leading to study drug withdrawal: fatigue ([1]; 200-mg once-daily group): 2 n
TEAE leading to study drug withdrawal: flatulence ([1]; 200-mg once-daily group): 1 n
TEAE leading to study drug withdrawal: headache ([1]; 200-mg once-daily group): 3 n
TEAE leading to study drug withdrawal: musculoskeletal stiffness ([1]; 200-mg once-daily group): 1 n
TEAE leading to study drug withdrawal: nausea ([1]; 200-mg once-daily group): 1 n
TEAE leading to study drug withdrawal: vomiting ([1]; 200-mg once-daily group): 2 n
subjects in whom study drug was withdrawn ([1]; 200-mg once-daily group): 3 subjects
subjects with abnormally high hematocrit, hemoglobin and red blood cell count ([1]; 200-mg once-daily group, day 8): Two
maximum tolerated dose ([1]; multiple doses, healthy male subjects): 100 mg once daily
food effect on GLPG1205 exposure [2]: no food effect
